Columns and labels:
[1] = test system: Valsa ceratosperma; test: Growth of germs on potato dextrose-agar medium containing the compound (Ex. 1); type: cell-based; design: key: +++: extremely much growth; ++: much growth; +: a little growth; -: no growth; conditions: two weeks, 25° C.
Description: (§1) Ethyl 2-(2-hydroxyethylamino)-3-benzoylpropionate hydrochloride was added to potato dextrose-agar culture medium in the concentration indicated in Table 1 and the suspensions of various kinds of germs were dropped on the culture medium. After incubation of the germs for two weeks in thermostat (25° C.), the growing conditions were observed.
(§2) In Table 1, +++, ++, + and - represent "extremely much growth", "much growth", "a little growth" and "no growth" respectively.

[2] = test system: Botrytis alli; test: Growth of germs on potato dextrose-agar medium containing the compound (Ex. 3); type: cell-based; design: key: +++: extremely much growth; ++: much growth; +: a little growth; -: no growth; conditions: two weeks, 25° C.
Description: as §1, §2

[3] = test system: Alternaria solani; test: Growth of germs on potato dextrose-agar medium containing the compound (Ex. 6); type: cell-based; design: key: +++: extremely much growth; ++: much growth; +: a little growth; -: no growth; conditions: two weeks, 25° C.
Description: as §1, §2

[4] = test system: Mycosphaerella melonis; test: Growth of germs on potato dextrose-agar medium containing the compound (Ex. 13); type: cell-based; design: key: +++: extremely much growth; ++: much growth; +: a little growth; -: no growth; conditions: two weeks, 25° C.
Description: as §1, §2

[5] = test system: Fusarium oxysporum f. lycopersici; test: Growth of germs on potato dextrose-agar medium containing the compound (Ex. 8); type: cell-based; design: key: +++: extremely much growth; ++: much growth; +: a little growth; -: no growth; conditions: two weeks, 25° C.
Description: as §1, §2

[6] = test system: Valsa ceratosperma; test: Length of disease spots on cut apple branches immersed in germicide before inoculation (Ex. 16); type: in vivo; conditions: 25° C.
Description: Branches of Delicious apple (branch diameter: about 1 cm. thick) grown for 1-2 years were cut to 10 cm. length. The cut branches were dried in a low temperature chamber (3° C.) until the water content of the cut branches became 50%. The dried cut branches were immersed in an aqueous solution of ethyl 2-(2-hydroxyethylamino)-3-benzoylpropionate hydrochloride (500 ppm, 1000 ppm and 2500 ppm) for one minute and then dried.
Each cut branch was end bored by a white heated 8 mm diameter cork borer. Valsa ceratosperma, previously cultured for four days on a potato dextrose-agar culture medium, was introduced into the branch by inoculating the branch with the Valsa ceratosperma containing culture by means of the sterilized cork borer. The branches prepared in this way were placed on wet filter paper spread in a polyethylene tray. The tray was inserted into a polyethylene bag which was sealed and then the bag was put into a thermostat (25° C.) for various controlled times.
After removal from the thermostat, the length of disease spots on each branch was measured.
A similar experiment for comparison was carried out using Benomyl, i.e. methyl-1-(buthylcarbamoyl)-2-benzimidazole carbamate as the germicide. The results of the comparative experiment and also a control experiment, in which the dried cut branches were not immersed in germicide (blank), are also shown in Table 2.

[7] = test system: Cladosporium cucumerium; test: Growth of germs on potato dextrose-agar medium containing the compound (Ex. 4); type: cell-based; design: key: +++: extremely much growth; ++: much growth; +: a little growth; -: no growth; conditions: two weeks, 25° C.
Description: as §1, §2

[8] = test system: Stemphylium lycopersici; test: Growth of germs on potato dextrose-agar medium containing the compound (Ex. 7); type: cell-based; design: key: +++: extremely much growth; ++: much growth; +: a little growth; -: no growth; conditions: two weeks, 25° C.
Description: as §1, §2

[9] = test system: Colletotrichum lagenarium; test: Prevention effect for anthracnose on cucumber (Ex. 18); type: in vivo; conditions: for Germicidal damage to seedlings: cucumber seedlings; for Number of disease spots per leaf / Percentage of leaves attacked with the disease / Prevention value per leaf (Perfect prevention = 100): sixth day after spraying
From the text: The prevention effect for anthracnose on cucumber was investigated in the following manner.
An aqueous solution of ethyl 2-(2-hydroxyethylamino)-3-benzoylpropionate hydrochloride (2500 ppm and 5000 ppm) was sprayed on cucumber seedlings (bifoliate age) of Tokiwa Hikari No. 3 (p type) variety which were planted in sections of two rows of three.
After air-drying the seedlings, a spore suspention of Colletotrichum lagenarium was inoculated on the test seedlings by means of a glass sprayer. The inoculated seedlings were kept at 20°-22° C. for four days in the inoculation box, and then allowed to stand in a glass chamber.
The number of disease spots of anthracnose that appeared on the cucumber leaves was measured on the sixth day after spraying the germicidal aqueous solution. The number of spots can be used to calculate a prevention value. Using the number of spots that appeared per control leaf as a reference, the relative number per hundred of spots prevented by the experimental germicide is the prevention value. Thus a perfectly preventive germicide has a prevention value of 100 and the control has a prevention value of 0.

[10] = test system: Phomopsis vexans; test: Growth of germs on potato dextrose-agar medium containing the compound (Ex. 11); type: cell-based; design: key: +++: extremely much growth; ++: much growth; +: a little growth; -: no growth; conditions: two weeks, 25° C.
Description: as §1, §2

[11] = test system: Cercospora kikuchii; test: Growth of germs on potato dextrose-agar medium containing the compound (Ex. 15); type: cell-based; design: key: +++: extremely much growth; ++: much growth; +: a little growth; -: no growth; conditions: two weeks, 25° C.
Description: as §1, §2

[12] = test system: Sclerotinia sclerotiorum; test: Growth of germs on potato dextrose-agar medium containing the compound (Ex. 12); type: cell-based; design: key: +++: extremely much growth; ++: much growth; +: a little growth; -: no growth; conditions: two weeks, 25° C.
Description: as §1, §2

For CCOC(=O)C(CC(=O)c1ccccc1)NCCO.Cl (stereo not shown) [Ethyl 2-(2-hydroxyethylamino)-3-benzoylpropionate hydrochloride], the “growing conditions (growth of germ)” value ([1]; 10 ppm) was “-”, the “growing conditions (growth of germ)” value ([1]; 20 ppm) was “-” and the “growing conditions (growth of germ)” value ([1]; 50 ppm) was “-”. The “growing conditions (growth of germ)” value ([1]; 100 ppm) was “-”, the “growing conditions (growth of germ)” value ([1]; 200 ppm) was “-” and the “growing conditions (growth of germ)” value ([2]; 10 ppm) was “+”. For the same compound, the “growing conditions (growth of germ)” value ([2]; 20 ppm) was “-”, the “growing conditions (growth of germ)” value ([2]; 50 ppm) was “-” and the “growing conditions (growth of germ)” value ([2]; 100 ppm) was “-”. The “growing conditions (growth of germ)” value ([2]; 200 ppm) was “-”, the “growing conditions (growth of germ)” value ([3]; 10 ppm) was “++” and the “growing conditions (growth of germ)” value ([3]; 20 ppm) was “-”. For the same compound, the “growing conditions (growth of germ)” value ([3]; 50 ppm) was “-”, the “growing conditions (growth of germ)” value ([3]; 100 ppm) was “-” and the “growing conditions (growth of germ)” value ([3]; 200 ppm) was “-”. The “growing conditions (growth of germ)” value ([4]; 10 ppm) was “+++”, the “growing conditions (growth of germ)” value ([4]; 20 ppm) was “-” and the “growing conditions (growth of germ)” value ([4]; 50 ppm) was “-”. For the same compound, the “growing conditions (growth of germ)” value ([4]; 100 ppm) was “-”, the “growing conditions (growth of germ)” value ([4]; 200 ppm) was “-” and the “growing conditions (growth of germ)” value ([5]; 10 ppm) was “+++”. The “growing conditions (growth of germ)” value ([5]; 20 ppm) was “++”, the “growing conditions (growth of germ)” value ([5]; 50 ppm) was “-” and the “growing conditions (growth of germ)” value ([5]; 100 ppm) was “-”. The “growing conditions (growth of germ)” value ([5]; 200 ppm) was “-”, the “Length of disease spot” value ([6]; 500 ppm, after 3 days) was 0 mm and the “Length of disease spot” value ([6]; 500 ppm, after 5 days) was 0 mm. The “Length of disease spot” value ([6]; 500 ppm, after 7 days) was 0.2 mm, the “Length of disease spot” value ([6]; 1000 ppm, after 3 days) was 0 mm and the “Length of disease spot” value ([6]; 1000 ppm, after 5 days) was 0 mm. The “Length of disease spot” value ([6]; 1000 ppm, after 7 days) was 0 mm, the “Length of disease spot” value ([6]; 2500 ppm, after 3 days) was 0 mm and the “Length of disease spot” value ([6]; 2500 ppm, after 5 days) was 0 mm. The “Length of disease spot” value ([6]; 2500 ppm, after 7 days) was 0 mm, the “growing conditions (growth of germ)” value ([7]; 10 ppm) was “+++” and the “growing conditions (growth of germ)” value ([7]; 20 ppm) was “+++”. For the same compound, the “growing conditions (growth of germ)” value ([7]; 50 ppm) was “-”, the “growing conditions (growth of germ)” value ([7]; 100 ppm) was “-” and the “growing conditions (growth of germ)” value ([7]; 200 ppm) was “-”. The “growing conditions (growth of germ)” value ([8]; 10 ppm) was “+”, the “growing conditions (growth of germ)” value ([8]; 20 ppm) was “+” and the “growing conditions (growth of germ)” value ([8]; 50 ppm) was “-”. For the same compound, the “growing conditions (growth of germ)” value ([8]; 100 ppm) was “-”, the “growing conditions (growth of germ)” value ([8]; 200 ppm) was “-” and the “Germicidal damage to seedlings” value ([9]; 2500 ppm) was “none”. For the same compound, the “Number of disease spots per leaf” value ([9]; 2500 ppm) was 2.83, the “Percentage of leaves attacked with the disease” value ([9]; 2500 ppm) was 83.3% and the “Prevention value per leaf (Perfect prevention = 100)” value ([9]; 2500 ppm) was 88.0. The “Germicidal damage to seedlings” value ([9]; 5000 ppm) was “none”, the “Number of disease spots per leaf” value ([9]; 5000 ppm) was 2.92 and the “Percentage of leaves attacked with the disease” value ([9]; 5000 ppm) was 91.7%. The “Prevention value per leaf (Perfect prevention = 100)” value ([9]; 5000 ppm) was 87.6, the “growing conditions (growth of germ)” value ([10]; 10 ppm) was “+” and the “growing conditions (growth of germ)” value ([10]; 20 ppm) was “-”. For the same compound, the “growing conditions (growth of germ)” value ([10]; 50 ppm) was “-”, the “growing conditions (growth of germ)” value ([10]; 100 ppm) was “-” and the “growing conditions (growth of germ)” value ([10]; 200 ppm) was “-”. For the same compound, the “growing conditions (growth of germ)” value ([11]; 10 ppm) was “+”, the “growing conditions (growth of germ)” value ([11]; 20 ppm) was “-” and the “growing conditions (growth of germ)” value ([11]; 50 ppm) was “-”. The “growing conditions (growth of germ)” value ([11]; 100 ppm) was “-”, the “growing conditions (growth of germ)” value ([11]; 200 ppm) was “-” and the “growing conditions (growth of germ)” value ([12]; 10 ppm) was “+++”. The “growing conditions (growth of germ)” value ([12]; 20 ppm) was “+++”, the “growing conditions (growth of germ)” value ([12]; 50 ppm) was “-” and the “growing conditions (growth of germ)” value ([12]; 100 ppm) was “-”. For the same compound, the “growing conditions (growth of germ)” value ([12]; 200 ppm) was “-”.
